Laboratory results published in patent US20260102407A1, “TREATMENT METHODS” (priority 2020, published 2026).

Tests used:
CD31 = assay: Immunohistochemical staining of rat retina, CD31; format: in vivo; conditions: lasered rat eyes 21 days after injury
Source text: Rat choroidal laser injury model. Male Brown Norway pigmented rats (8-14 week-old) were anesthetized by an intramuscular injection of Rompun® (xylazine)/Imalgene® (ketamine). Pupils were dilated by instillation of one drop of 0.5% tropicamide before laser burn. Six burns were created in both eyes on Day 0 by applying 170 mW of 532 nm laser light (Viridis laser, Quantel, France) on 75 μm spots around the optic nerve, between the main retinal vessel branches, for 0.1s, through the slit lamp and contact lens. Production of a bubble at the time of laser application confirmed the rupture of Bruch's membrane. […] After anaesthesia, 10% sodium fluorescein (250 μl/100 g body weight) was injected subcutaneously, and ocular fluorescence was recorded 10 min after dye injection. Fluorescein leakage was evaluated on Days 14 and 21 in the angiograms by two examiners masked to the study groups and graded for fluorescein intensity as follows: score 0: no leakage; 1: slightly stained; 2: moderately stained; 3: strongly stained.
Immunohistochemical staining of rat retina. […] IOD of positive staining (red chromogen) was assessed for CD31, VEGF-A165, pERK, FosB and VCAM-1 using Image-Pro Plus software (Cybernetics, Bethesda, MD). IOD in IPL and INL was quantified for CD31; OPL to OS for VEGF-A165; INL to ONL for pERK; GCL to OS for FosB; OLM for VCAM-1, using Image-Pro Plus. […]

genes induced by IL-1β = assay: RNA-seq of IL-1β-treated HMEC-1; format: cell-based, human; conditions: 30 μM, 20 ng/ml IL-1β 4 h
Description: RNA-seq. HMEC-1 were seeded into nine 100 mm petri dishes with complete MCDB131 medium containing 10% FBS. At 70-80% confluency, cells were growth-arrested with serum-free MCDB131 medium with no hydrocortisone or EGF for 44 h. Cells were pre-treated with 30 μM BT2 in the same medium for 4 h then stimulated with 20 ng/mL IL-1β for a further 4 h. Total RNA was extracted using RNeasy Mini Kit (Qiagen, Amtsgericht Dusseldorf) with modification. Briefly, cells were washed twice with pre-cooled 1×PBS and TRIzol (Thermo Fisher Sci, Waltham, MA) was added to lyze the cells. Chloroform was added to the mixture prior to centrifugation at 13000 rpm for 15 min at 4° C. Upper aqueous layer containing total RNA was transferred to fresh microtubes and isopropanol was added and loaded into RNeasy column. Columns were washed with Buffers RW1 and RPE. Total RNA was eluted from the column using RNAse-free water. Samples were submitted to The Ramaciotti Centre for Genomics (UNSW, Australia) for TruSeq Stranded mRNA-seq preparation and sequencing by One NextSeq 500 1×75 bp High Output flowcell with data output up to 400M reads. Quality control of samples was set at >80% higher than Q30 at 1×75 bp.
RNA-seq reads were first assessed for quality using the tool FastQC (v0.11.8) (On the World-Wide-Web at: bioinformatics.babraham.ac.uk/projects/fastqc/). The tool Salmon was used for quantifying transcript abundance from RNA-seq reads (Patro, R., et al., Nat Methods 14, 417-419 (2017)). The R package DESeq2 (Love, M. I., et al., Genome Biol 15, 550 (2014)) that incorporates a method for differential analysis of count data was then used to identify differentially expressed genes across specific comparisons. The heatmap.2 function from the R package gplots v3.0.1.1 was used to generate heatmaps using counts per million (cpm) values for sets of genes of interest. The database for annotation, visualization and integrated discovery (DAVID) (Jiao, X., et al., Bioinformatics 28, 1805-1806 (2012)), a web-based online bioinformatics resource was used to identify the gene ontologies such as biological processes (BP) found to be enriched for lists of differentially expressed genes for specific comparisons.

Structure (SMILES): CCOC(=O)Nc1ccc2c(c1)C(=O)N(CC)c1ccccc1O2 [BT2, (10-ethyl-11-oxo-10,11-dihydro-dibenzo[b,f][1,4]oxazepin-2-yl)-carbamic acid ethyl ester]
- inducible CD31 staining in the IPL and INL (CD31): inhibited inducible CD31 staining
- IL-1β-inducible FosB and VCAM-1 expression (RNA-seq) (genes induced by IL-1β): suppress IL-1β-inducible FosB and VCAM-1 expression
- expression of other regulatory genes including ICAM-1, CXCL2, KLF5, Egr-1 and Fos (RNA-seq) (genes induced by IL-1β): inhibited a range of other regulatory genes
- number of the 325 IL-1β-induced genes (log FC≥2) inhibited (log FC≥2) (genes induced by IL-1β): 89
- proportion of the 325 IL-1β-induced genes inhibited (genes induced by IL-1β): 27.5%
